In US20260283153A1 (priority 2023, published 2026) one finds pest or weed control and inhibition of growth data, which are given here for 22 compounds.

One assay concerns Phytophthora infestans. In words: whole plant or invertebrate. In kind it is in vivo. The settings on record: in Solanum lycopersicum, foliar, read-out: control of Phytophthora infestans.
The next assay deals with Pythium ultimum. In words: Pythium ultimum/liquid culture (seedling damping off). It counts as cell-based. Particulars: Globisporangium ultimum, liquid culture, growth inhibition determined photometrically 2-3 days after application, compared to untreated control. How it is done: Mycelia fragments and oospores of a newly grown liquid culture of the fungus are directly mixed into nutrient broth (PDB potato dextrose broth). After placing a (DMSO) solution of test compound into a microtiter plate (96-well format), the nutrient broth containing the fungal mycelia/spore mixture is added. The test plates are incubated at 24° C. and the inhibition of growth is determined photometrically 2-3 days after application.

The subject of the next assay is Plasmopara viticola. The assay is described as follows: whole plant or invertebrate. In kind it is in vivo. Particulars: foliar, read-out: control of Plasmopara viticola.
The subject of assay [1] is Monographella nivalis (Microdochium nivale). The assay is described as follows: Monographella nivalis (Microdochium nivale)/liquid culture (foot rot cereals). In kind it is cell-based. The settings on record: liquid culture, growth inhibition determined photometrically 4-5 days after application, compared to untreated control. The procedure:
The fungicidal activity of the compounds of the invention have been tested as follows: • Monographella nivalis (Microdochium nivale)/liquid culture (foot rot cereals) Conidia of the fungus from cryogenic storage are directly mixed into nutrient broth (PDB potato dextrose broth). After placing a (DMSO) solution of test compound into a microtiter plate (96-well format), the nutrient broth containing the fungal spores is added. The test plates are incubated at 24° C. and the inhibition of growth is determined photometrically 4-5 days after application.

SMILES strings stand for the structures.

For `COc1cc(N(C)C(=O)c2cn3c(-c4ccc(NC(=O)C5CC5)cc4)cnc3cn2)ccc1F` [Compound 46, 3-[4-(cyclopropanecarbonylamino)phenyl]-N-(4-fluoro-3-methoxy-phenyl)-N-methyl-imidazo[1,2-a]pyrazine-6-carboxamide], the pest or weed control at 200 ppm with Phytophthora infestans was not below 80%. For the compound `COCC(=O)Nc1ccc(-c2cnc3cnc(C(=O)N(C)c4ccc(Cl)cc4)cn23)cc1` [Compound 27, N-(4-chlorophenyl)-3-[4-[(2-methoxyacetyl)amino]phenyl]-N-methyl-imidazo[1,2-a]pyrazine-6-carboxamide], in the assay on Pythium ultimum, the inhibition of growth (as a rule, the percentage by which the read-out fell short of the control) at 20 ppm is not below 80%.

In the case of `COC(=O)Nc1ccc(-c2cnc3cnc(C(=O)N(C)c4ccc(C#N)c(OC)c4)cn23)cc1` [Compound 59, methyl N-[4-[6-[(4-cyano-3-methoxy-phenyl)-methyl-carbamoyl]imidazo[1,2-a]pyrazin-3-yl]phenyl]carbamate], the pest or weed control at 200 ppm with Phytophthora infestans and in the assay with Plasmopara viticola was not below 80% in each case. The inhibition of growth at 20 ppm in the assay on Pythium ultimum was not below 80%. Regarding `CC(=O)Nc1ccc(-c2cnc3cnc(C(=O)N(C)c4ccc(Cl)cc4)cn23)cc1` [Compound 37, 3-(4-acetamidophenyl)-N-(4-chlorophenyl)-N-methyl-imidazo[1,2-a]pyrazine-6-carboxamide], the pest or weed control at 200 ppm in the assay on Phytophthora infestans and in the assay on Plasmopara viticola was not below 80% throughout. In the case of `CON(C)C(=O)Nc1ccc(-c2cnc3cnc(C(=O)N(C)c4ccc(Cl)cc4)cn23)cc1` [Compound 5, N-(4-chlorophenyl)-3-[4-[[methoxy(methyl)carbamoyl]amino]phenyl]-N-methyl-imidazo[1,2-a]pyrazine-6-carboxamide], the inhibition of growth at 20 ppm in assay [1] was not below 80%. For the compound `CNC(=O)Nc1ccc(-c2cnc3cnc(C(=O)N(C)c4ccc(Cl)cc4)cn23)cc1` [Compound 6, N-(4-chlorophenyl)-N-methyl-3-[4-(methylcarbamoylamino)phenyl]imidazo[1,2-a]pyrazine-6-carboxamide], in assay [1], the inhibition of growth at 20 ppm is not below 80%. In addition, the pest or weed control at 200 ppm in the assay on Plasmopara viticola was not below 80%.

In the assay on Pythium ultimum, `COC(=O)Nc1ccc(-c2cnc3cnc(C(=O)N(C)c4ccc(C#N)cc4)cn23)cc1` [Compound 9, methyl N-[4-[6-[(4-cyanophenyl)-methyl-carbamoyl]imidazo[1,2-a]pyrazin-3-yl]phenyl]carbamate] gave an inhibition of growth at 20 ppm not below 80%. Consider `COC(=O)Nc1ccc(-c2cnc3cnc(C(=O)N(CC#N)c4ccc(F)c(OC)c4)cn23)cn1` [Compound 2, methyl N-[5-[6-[cyanomethyl-(4-fluoro-3-methoxy-phenyl)carbamoyl]imidazo[1,2-a]pyrazin-3-yl]-2-pyridyl]carbamate], for which the pest or weed control at 200 ppm in the assay on Phytophthora infestans is not below 80%. This compound also yielded an inhibition of growth at 20 ppm in the assay on Pythium ultimum not below 80%. On to `COc1cc(N(C)C(=O)c2cn3c(-c4ccc(NC(=O)C5CC5)nc4)cnc3cn2)ccc1F` [Compound 50, 3-[6-(cyclopropanecarbonylamino)-3-pyridyl]-N-(4-fluoro-3-methoxy-phenyl)-N-methyl-imidazo[1,2-a]pyrazine-6-carboxamide], for which, in the assay on Phytophthora infestans, the pest or weed control at 200 ppm was not below 80%. As to `COc1cc(N(C)C(=O)c2cn3c(-c4ccc(NC(C)=O)cc4)cnc3cn2)ccc1F` [Compound 51, 3-(4-acetamidophenyl)-N-(4-fluoro-3-methoxy-phenyl)-N-methyl-imidazo[1,2-a]pyrazine-6-carboxamide], the pest or weed control at 200 ppm with Phytophthora infestans is not below 80%. For the compound `CCOC(=O)Nc1ccc(-c2cnc3cnc(C(=O)N(C)c4ccc(Cl)cc4)cn23)cc1` [Compound 8, ethyl N-[4-[6-[(4-chlorophenyl)-methyl-carbamoyl]imidazo[1,2-a]pyrazin-3-yl]phenyl]carbamate], the inhibition of growth at 20 ppm in assay [1] is not below 80%. In addition, the pest or weed control at 200 ppm in the assay on Plasmopara viticola was not below 80%. In the case of `CC(=O)Nc1ccc(-c2cnc3cnc(C(=O)N(C)c4ccc(Br)cc4)cn23)cc1` [Compound 34, 3-(4-acetamidophenyl)-N-(4-bromophenyl)-N-methyl-imidazo[1,2-a]pyrazine-6-carboxamide], the inhibition of growth at 20 ppm (in assay [1]; in the assay with Pythium ultimum) was not below 80% throughout.

In the assay on Pythium ultimum, `CC(=O)Nc1ccc(-c2cnc3cnc(C(=O)N(C)c4ccc(F)cc4)cn23)cc1` [Compound 38, 3-(4-acetamidophenyl)-N-(4-fluorophenyl)-N-methyl-imidazo[1,2-a]pyrazine-6-carboxamide] showed an inhibition of growth at 20 ppm not below 80%. As to `COC(=O)Nc1ccc(-c2cnc3cnc(C(=O)N(C)c4ccc(Cl)cc4)cn23)cc1` [Compound 28, methyl N-[4-[6-[(4-chlorophenyl)-methyl-carbamoyl]imidazo[1,2-a]pyrazin-3-yl]phenyl]carbamate], the inhibition of growth at 20 ppm (in assay [1]; with Pythium ultimum) was not below 80% in each case. The pest or weed control at 200 ppm in the assay with Plasmopara viticola was not below 80%.

`CC(=O)Nc1ccc(-c2cnc3cnc(C(=O)N(C)c4ccc(C#N)cc4)cn23)cc1` [Compound 36, 3-(4-acetamidophenyl)-N-(4-cyanophenyl)-N-methyl-imidazo[1,2-a]pyrazine-6-carboxamide]: the pest or weed control at 200 ppm in the assay with Plasmopara viticola is not below 80%. In the case of `COCN(C(=O)c1cn2c(-c3ccc(NC(=O)OC)nc3)cnc2cn1)c1ccc(F)c(OC)c1` [Compound 1, methyl N-[5-[6-[(4-fluoro-3-methoxy-phenyl)-(methoxymethyl)carbamoyl]imidazo[1,2-a]pyrazin-3-yl]-2-pyridyl]carbamate], the pest or weed control at 200 ppm with Phytophthora infestans and in the assay on Plasmopara viticola was not below 80% in each case. In the assay with Pythium ultimum, this compound returned an inhibition of growth at 20 ppm not below 80%. With `COC(=O)Nc1ccc(-c2cnc3cnc(C(=O)N(C)c4ccc(F)c(OC)c4)cn23)cn1` [Compound 4, methyl N-[5-[6-[(4-fluoro-3-methoxy-phenyl)-methyl-carbamoyl]imidazo[1,2-a]pyrazin-3-yl]-2-pyridyl]carbamate], in the assay with Phytophthora infestans, the pest or weed control at 200 ppm was not below 80%. Also, the inhibition of growth at 20 ppm with Pythium ultimum was not below 80%.

As to `COCN(C(=O)c1cn2c(-c3ccc(NC(=O)OC)nc3)cnc2cn1)c1ccc(C#N)c(OC)c1` [Compound 55, methyl N-[5-[6-[(4-cyano-3-methoxy-phenyl)-(methoxymethyl)carbamoyl]imidazo[1,2-a]pyrazin-3-yl]-2-pyridyl]carbamate], the pest or weed control at 200 ppm with Plasmopara viticola is not below 80%. In addition, in the assay with Pythium ultimum, the inhibition of growth at 20 ppm was not below 80%. As for `COC(=O)Nc1ccc(-c2cnc3cnc(C(=O)N(C)c4ccc(F)c(OC)c4)cn23)cc1` [Compound 58, methyl N-[4-[6-[(4-fluoro-3-methoxy-phenyl)-methyl-carbamoyl]imidazo[1,2-a]pyrazin-3-yl]phenyl]carbamate], the pest or weed control at 200 ppm in the assay with Phytophthora infestans and in the assay on Plasmopara viticola was not below 80% throughout. Moreover, in the assay with Pythium ultimum, the inhibition of growth at 20 ppm is not below 80%. `COC(=O)Nc1ccc(-c2cnc3cnc(C(=O)N4CCN(C)c5cc(F)ccc54)cn23)cn1` [Compound 53, methyl N-[5-[6-(6-fluoro-4-methyl-2,3-dihydroquinoxaline-1-carbonyl)imidazo[1,2-a]pyrazin-3-yl]-2-pyridyl]carbamate] registered an inhibition of growth at 20 ppm in the assay on Pythium ultimum not below 80%. `COC(=O)Nc1ccc(-c2cnc3cnc(C(=O)N(CC#N)c4ccc(Cl)c(OC)c4)cn23)cn1` [Compound 3, methyl N-[5-[6-[(4-chloro-3-methoxy-phenyl)-(cyanomethyl)carbamoyl]imidazo[1,2-a]pyrazin-3-yl]-2-pyridyl]carbamate]: the pest or weed control at 200 ppm with Phytophthora infestans was not below 80%. The same compound displayed an inhibition of growth at 20 ppm in the assay on Pythium ultimum not below 80%. Take `COC(=O)Nc1ccc(-c2cnc3cnc(C(=O)N4CCCc5cc(F)ccc54)cn23)cn1` [Compound 42, methyl N-[5-[6-(6-fluoro-3,4-dihydro-2H-quinoline-1-carbonyl)imidazo[1,2-a]pyrazin-3-yl]-2-pyridyl]carbamate]: the pest or weed control at 200 ppm in the assay on Phytophthora infestans was not below 80%.
